≈ marks a conversion by molar mass, not a printed value. Entries after “also recorded” stand apart in the source; their conditions may differ. Read-outs that look alike come from different tables or passages of the source.
Key:
Format in all cases: cell-based, Staphylococcus aureus
S. aureus SH1000 = assay: Planktonic MIC by broth microdilution (BSAC guidelines)
Protocol: (§1) Methods: MICs were determined for planktonic cultures by broth microdilution according to British Society for Antimicrobial Chemotherapy (BSAC) guidelines. Biofilm MICs (bMIC) and minimum biofilm eradication concentrations (MBECs) were determined using the Calgary biofilm device. The effect of Compound 10 on the viability of cold culture cells was determined by growing S. aureus SH1000 to early exponential phase at 37° C. and resuspending the cells in pre-chilled media, where they were maintained in the presence and absence of Compound 10 and control agents. The effect of Compound 10 on slow growing cells expressing the stringent response was also determined by growing cultures to early log phase and the stringent response induced by the addition of the isoleucyl-tRNA synthetase inhibitor mupirocin. Compound 10 and control agents were then added and samples recovered for viable cell determinations.

[1] = system: S. aureus SH1000 biofilms; assay: Biofilm MIC and minimum biofilm eradication concentration, Calgary Biofilm Device; conditions: for MIC: Staphylococcus aureus, SH1000BIOFILMS, read-out: bMIC; for MIC / bMIC: biofilm MIC; for MBEC: minimum biofilm eradication concentration
Protocol: as §1
Biofilm MICs and minimum biofilm eradication concentrations (MBEC) were determined in the Calgary Biofilm Device (Nunc Inc, Roskilde, Denmark) as described by Miller et al., 2005. This involves the following steps. Aliquots (200 μL) of exponential phase cultures of strain SH1000 were added to each well of a 96-well microtitre tray. The lid assembly, which has 96 polystyrene pegs corresponding to each well, was then replaced and the system incubated for 24 hours at 37° C. on a rocking platform. Following this a biofilm of approximately 10^7 cfu matured on each peg. The lid was then washed twice in phosphate-buffered saline (PBS) to remove residual planktonic growth and then placed into a microtitre tray with fresh media containing doubling dilutions of the test antibiotic. The system was then incubated for 24 hours at 37° C. on a rocking platform. The MIC was defined as the lowest concentration of antibiotic completely inhibiting visible growth after this incubation. After the MIC was recorded, the lid assembly was again washed twice in PBS to remove planktonic cells and remaining antibiotic and then placed into fresh drug-free media. The system was incubated for a further 24 hours and the MBEC was defined as the lowest concentration of antibiotic completely inhibiting the re-establishment of planktonic growth.

[2] = system: stringent S. aureus SH1000 cultures; assay: Time-kill against cultures expressing the stringent response (induced with mupirocin); conditions: stringent response induced with mupirocin, agents at 4×MIC
Protocol: as §1
When nutrients become limiting for growth bacteria adjust their metabolism from one that supports growth to one that provides for long survival in the absence of nutrients. In many bacteria a key facilitator of this physiological switch, known as the stringent response, is accumulation of guanosine […] and pentaphosphate (Traxler et al., 2008). The antibiotic mupirocin is a strong inducer of the stringent response in S. aureus and effectively causes starvation of charged isoleucyl tRNA by potent inhibition of isoleucy ItRNA synthetase (IRS) (Oliva et al., 2003). The activity of XF drugs against S. aureus SH1000 prevented from growing by the addition of mupirocin (Oliva et al., 2003), was therefore examined (FIG. 10). As an alternative method for arresting growth, bacteria were suspended in cold growth medium (Mascio et al., 2007) and the bactericidal activity of XF drugs was also determined under these conditions (FIG. 11).
(§2) The anti-staphylococcal activities of Compound 10, Compound 12 and a range of comparator agents against slow-growing cultures of Staphylococcus aureus were studied using standard time-kill methodology (Oliva et al. 2003, Hobbs et al. 2008). Staphylococcus aureus SH1000 cultures were grown to early exponential phase (OD600 nm of 0.2) in Mueller-Hinton broth (MHB) before being exposed to antibacterial agents at 4×MIC. An untreated culture served as the negative control. The experiments were undertaken in triplicate.
The antibiotic mupirocin is a strong inducer of the stringent response in S. aureus and causes starvation of charged isoleucyl tRNA by potent inhibition of isoleucyl tRNA synthetase (IRS) (Oliva et al. 2003, Cassels et al. 1995) Stringency was induced in SH1000 cultures by adding mupirocin (4 mg/L) to cells in the early exponential growth phase (OD600 nm of 0.2) (Oliva et al. 2003, Cassels et al. 1995). Cultures were incubated with mupirocin for 30 minutes before sampling began. Cultures were maintained at 37° C., and samples were taken at 30 minute intervals for 300 minutes, serially diluted in phosphate buffered saline (PBS) and diluted culture was spread on Mueller-Hinton agar and was incubated at 37° C. for 18-24 hours before the number of CFU were counted.

[3] = system: S. aureus SH1000 cold cultures; assay: Time-kill against cold cultures (4° C.); conditions: cold culture held at 4° C. for 5 hours, agents at 4×MIC
Protocol: as §1
The effect of XF drugs on the viability of cold culture cells was determined by growing S. aureus SH1000 to early exponential phase at 37° C., harvesting the cells by centrifugation (5,000×g, 10 min.) and resuspending them in pre-chilled media where they were maintained in the presence and absence of XF drugs and control agents for 5 hours. […] (FIG. 11).
as §2
Cold cultures were prepared by growing SH1000 cells to early exponential phase (OD600 nm of 0.2) at 37° C. Cultures were then centrifuged and the cell pellet was resuspended in MHB pre-chilled to 4° C. The killing kinetics of antimicrobial agents were studied as described in the section above, with the exception that cultures were maintained at 4° C. over the 5 hour sampling period.

[4] = Staphylococcus aureus, planktonic S. aureus SH1000 (Table 5), read-out: MIC
[5] = planktonic S. aureus SH1000 (Table 6)
[6] = 24 h, S. aureus SH1000, Calgary Biofilm Device, 24 hours (Table 6)
[7] = S. aureus SH1000, Calgary device (Example H)
[8] = planktonic S. aureus SH1000 (Table 5)
[9] = S. aureus SH1000, Calgary Biofilm Device, 24 hours (Table 6)
[10] = S. aureus SH1000, Calgary Biofilm Device (Table 6)

Compound | MIC (S. aureus SH1000; [4]) | MIC (S. aureus SH1000; [5]) | MIC [1, 6] | MIC [1, 7] | MIC (S. aureus SH1000; [8]) | bMIC [1, 9] | bMIC [1, 7] | MBEC [1, 10] | MBEC [1, 7] | viability / bactericidal activity in time-kill (in words) [2] | viability / bactericidal activity in time-kill (in words) [3]
CN(C)[C@@H]1C(O)=C(C(N)=O)C(=O)[C@@]2(O)C(O)=C3C(=O)c4c(O)cccc4[C@@](C)(O)[C@H]3C[C@@H]12 [Tetracycline] | 1 µg/mL (≈ 2.25 µM) | 1 µg/mL (≈ 2.25 µM) | 0.5 µg/mL (≈ 1.13 µM) | 0.5 µg/mL (≈ 1.13 µM) |  |  |  |  |  |  | 
CC(=O)O[C@H]1C[C@@]2(C)[C@@H](C[C@@H](O)[C@H]3[C@@]4(C)CC[C@@H](O)[C@@H](C)[C@@H]4CC[C@@]32C)/C1=C(\CCC=C(C)C)C(=O)O [Fusidic acid] | 0.25 µg/mL (≈ 0.484 µM) | 0.25 µg/mL (≈ 0.484 µM) | 0.5 µg/mL (≈ 0.968 µM) | 0.5 µg/mL (≈ 0.968 µM) |  |  |  |  |  |  | 
Gentamycin |  | 0.5 µg/mL |  |  | 0.5 µg/mL | 1 µg/mL | 1 µg/mL | >256 µg/mL | >256 µg/mL |  | 
CO/N=C(\C(=O)N[C@@H]1C(=O)N2C(C(=O)O)=C(COC(C)=O)CS[C@H]12)c1csc(N)n1 [Cefotaxime] | 0.5 µg/mL (≈ 1.1 µM) | 0.5 µg/mL (≈ 1.1 µM) | 4 µg/mL (≈ 8.78 µM) | 4 µg/mL (≈ 8.78 µM) |  |  |  |  |  |  | 
O=C(O)c1cn(C2CC2)c2cc(N3CCNCC3)c(F)cc2c1=O [Ciprofloxacin] | 2 µg/mL (≈ 6.04 µM) | 2 µg/mL (≈ 6.04 µM) | 4 µg/mL (≈ 12.1 µM) | 4 µg/mL (≈ 12.1 µM) |  |  |  |  |  |  | 
C/C(=C\C(=O)OCCCCCCCCC(=O)O)C[C@@H]1OC[C@H](C[C@@H]2O[C@H]2[C@@H](C)[C@H](C)O)[C@@H](O)[C@H]1O [Mupirocin] | 0.125 µg/mL (≈ 0.25 µM) | 0.125 µg/mL (≈ 0.25 µM) | 0.25 µg/mL (≈ 0.499 µM) | 0.25 µg/mL (≈ 0.499 µM) |  |  |  |  |  |  | 
Cc1onc(-c2c(F)cccc2Cl)c1C(=O)N[C@@H]1C(=O)N2[C@@H]1SC(C)(C)[C@@H]2C(=O)O [Flucloxacillin] | 0.125 µg/mL (≈ 0.275 µM) | 0.125 µg/mL (≈ 0.275 µM) | 4 µg/mL (≈ 8.81 µM) | 4 µg/mL (≈ 8.81 µM) |  |  |  |  |  |  | 
[H]/N=C(\N/C(=N/[H])NCCCCCCNC(=N)NC(=N)Nc1ccc(Cl)cc1)Nc1ccc(Cl)cc1 [Chlorhexidine] | 2 µg/mL (≈ 3.96 µM) | 2 µg/mL (≈ 3.96 µM) | 1 µg/mL (≈ 1.98 µM) | 1 µg/mL (≈ 1.98 µM) |  |  |  |  |  |  | 
CCCCCCCCCC(=O)N[C@@H](Cc1c[nH]c2ccccc12)C(=O)N[C@H](CC(N)=O)C(=O)N[C@@H](CC(=O)O)C(=O)N[C@@H]1C(=O)NCC(=O)N[C@@H](CCCN)C(=O)N[C@@H](CC(=O)O)C(=O)N[C@H](C)C(=O)N[C@@H](CC(=O)O)C(=O)NCC(=O)N[C@H](CO)C(=O)N[C@@H]([C@H](C)CC(=O)O)C(=O)N[C@@H](CC(=O)c2ccccc2N)C(=O)O[C@@H]1C [Daptomycin] | 1 µg/mL (≈ 0.617 µM) | 1 µg/mL (≈ 0.617 µM) | 2 µg/mL (≈ 1.23 µM) | 2 µg/mL (≈ 1.23 µM) |  |  |  |  |  | no loss of viability | no loss of viability; also recorded: retained some bactericidal activity; also recorded: retained limited bactericidal activity
CCCCCCCCCCCCCCCC[N+](C)(C)C.[Br-] [CTAB] |  | 2 µg/mL |  |  | 2 µg/mL | 2 µg/mL | 2 µg/mL | >256 µg/mL | >256 µg/mL |  | 
C[C@@H](O)[C@H]1C(=O)N2C(C(=O)O)=C(S[C@@H]3CN[C@H](C(=O)N(C)C)C3)[C@H](C)[C@H]12 [Meropenem] | 0.5 µg/mL (≈ 1.3 µM) | 0.5 µg/mL (≈ 1.3 µM) | 0.5 µg/mL (≈ 1.3 µM) | 0.5 µg/mL (≈ 1.3 µM) |  |  |  |  |  |  | 
CO[C@H]1/C=C/O[C@@]2(C)Oc3c(C)c(O)c4c(O)c(c(/C=N/N5CCN(C)CC5)c(O)c4c3C2=O)NC(=O)/C(C)=C\C=C\[C@H](C)[C@H](O)[C@@H](C)[C@@H](O)[C@@H](C)[C@H](OC(C)=O)[C@@H]1C [Rifampin] | 0.008 µg/mL (≈ 0.00972 µM) | 0.008 µg/mL (≈ 0.00972 µM) | 0.02 µg/mL (≈ 0.0243 µM) | 0.03 µg/mL (≈ 0.0365 µM) |  |  |  |  |  |  | 
